Measured values from patent publication US10035795B1, “Phenothiazine derivatives having CaM inhibitory activity” (KOREA INSTITUTE OF SCIENCE AND TECHNOLOGY, priority 2017, dated 2018).

system: U87MG cells; test: Calcium imaging (Ca2+ imaging): change in the calcium level of the cells, Fura-2 340/380 ratio; assay type: cell-based; conditions: 100 μM in HEPES buffer, average 340/380 ratio reactivity for 200 seconds relative to TFP (trifluoperazine) as 100%
Procedure: Calcium Imaging (Ca^2+ Imaging)
Calcium imaging was conducted as follows in order to measure the change in the calcium level in […] (glioblastoma cells) by TFP (trifluoperazine) and the phenothiazine derivative represented by Chemical Formula 1 according to the present invention. First, after placing a polylysine (PDL)-coated coverslip on a 24-well plate, 2×10^4 U87MG cells detached by treating with trypsin were seeded thereupon. On the next day, the coverslip was incubated at room temperature for 1 hour in a Fura-2 solution (5 μM Fura-2 AM, 1 μM pluronic acid in HEPES buffer, pH 7.4) and washed twice with a HEPES buffer (10 mM HEPES, 150 mM NaCl, 3 mM KCl, 2 mM CaCl2, 1 mM MgCl2, 22 mM sucrose, 10 mM glucose, pH 7.4). The washed coverslip was mounted in a bath adapter (bath adapter) and placed under a calcium imaging microscope (Olympus IX71). After connecting a bath line to the bath adapter, the change in the calcium level of the cells was recorded for 300 seconds (4-second intervals; 340 nm, 380 nm, 340/380 nm ratio) by running a calcium imaging program (Imaging Workbench 6.0, Indec Inc.). After flowing a HEPES buffer for 50 seconds for setting of the baseline, a TFP (trifluoperazine) solution or solution of the phenothiazine derivative represented by Chemical Formula 1 (100 μM in HEPES buffer) were flown as test solutions for 100 seconds and then a HEPES buffer was flown again for 150 seconds. All the test solutions were prepared by diluting a 50 mM stock solution to 100 μM with a HEPES buffer. For analysis of the change of intracellular calcium level by the phenothiazine derivative represented by Chemical Formula 1, data files were read using a calcium imaging analysis program (Clampfit 9.2, Axon Inc.) and only the 340/380 ratio values were taken. The values recorded for the first 50 seconds were set to “0” and graphs were rearranged. Then, the average reactivity to the phenothiazine derivative represented by Chemical Formula 1 for 200 seconds was calculated relative to the average reactivity to TFP (trifluoperazine) for 200 seconds as 100%.

Compound | Reactivity (%)
CSc1ccc2c(c1)N(CCCCN1CCC(N3CCCC3)CC1)c1ccccc1S2 [Example 52, 2-(methylthio)-10-(4-(4-(pyrrolidin-1-yl)piperidin-1-yl)butyl)-10H-phenothiazine] | 150%
Fc1ccc2c(c1)N(CCCCN1CCC(N3CCCC3)CC1)c1ccccc1S2 [Example 77, 2-fluoro-10-(4-(4-(pyrrolidin-1-yl)piperidin-1-yl)butyl)-10H-phenothiazine] | 149%
CC1CCN(CCCCN2c3ccccc3Sc3ccc(F)cc32)CC1 [Example 76, 2-fluoro-10-(4-(4-methylpiperidin-1-yl)butyl)-10H-phenothiazine] | 110%
FC(F)(F)c1ccc2c(c1)N(CCCCN1CCC(N3CCOCC3)CC1)c1ccccc1S2 [Example 41, 4-(1-(4-(2-(trifluoromethyl)-10H-phenothiazine;-10-yl)butyl)piperidin-4-yl)morpholine] | 120%
Clc1ccc2c(c1)N(CCCN1CCC(N3CCCCC3)CC1)c1ccccc1S2 [Example 69, 10-(3-(1,4′-bipiperidin-1′-yl)propyl)-2-chloro-10H-phenothiazine] | 124%
CSc1ccc2c(c1)N(CCCCN1CCC(N3CCCCC3)CC1)c1ccccc1S2 [Example 72, 10-(4-(1,4′-bipiperidin-1′-yl)butyl)-2-(methylthio)-10H-phenothiazine] | 131%
FC(F)(F)c1ccc2c(c1)N(CCCCN1CCC(N3CCCC3)CC1)c1ccccc1S2 [Example 42, 10-(4-(4-(pyrrolidin-1-yl)piperidin-1-yl)butyl)-2-(trifluoromethyl)-10H-phenothiazine] | 134%
FC(F)(F)c1ccc2c(c1)N(CCCCN1CCC(N3CCCCC3)CC1)c1ccccc1S2 [Example 43, 10-(4-(1,4′-bipiperidin-1′-yl)butyl)-2-(trifluoromethyl)-10H-phenothiazine] | 123%
CSc1ccc2c(c1)N(CCCN1CCC(N3CCCC3)CC1)c1ccccc1S2 [Example 55, 2-(methylthio)-10-(3-(4-(pyrrolidin-1-yl)piperidin-1-yl)propyl)-10H-phenothiazine] | 114%
CN1CCN(CCCN2c3ccccc3Sc3ccc(C(F)(F)F)cc32)CC1 [TFP, trifluoperazine] | 100%

system: lung cancer; test: cell viability assay, colony formation assay and soft agar colony formation assay; assay type: cell-based; conditions: not given
Source text: (§1) TFP is a phenothiazine-based compound mainly used as an antipsychotic [see patent document 1]. Antipsychotics are psychiatric drugs primarily used to manage psychosis such as schizophrenia, bipolar disorder, etc. and also to manage non-psychiatric disorder such as sleep. The antipsychotics tend to block receptors in the brain's dopamine pathways but cover a wide range of drug targets. […] Based on this, cell viability assay, matrigel invasion assay, colony formation assay and soft agar colony formation assay were conducted to investigate whether TFP suppresses lung cancer.

Compound | migration and proliferation of lung cancer
CN1CCN(CCCN2c3ccccc3Sc3ccc(C(F)(F)F)cc32)CC1 [TFP, trifluoperazine] | suppresses the migration and proliferation of lung cancer

system: cancer cells; test: matrigel invasion assay; assay type: cell-based; conditions: not given
Source text: as §1

Compound | invasion of cancer cells
CN1CCN(CCCN2c3ccccc3Sc3ccc(C(F)(F)F)cc32)CC1 [TFP, trifluoperazine] | inhibits the invasion of cancer cells
